Reference: patent publication US10167300B2, “Metalloenzyme inhibitor compounds as fungicides” (priority 2014, dated 2019)

tested on: Mycosphaerella graminicola; Anamorph: Septoria tritici; Bayer Code SEPTTR (standard laboratory isolate, SI SEPTTR); test: Type A (high volume) assay, leaf blotch of wheat, standard laboratory SEPTTR isolate (SI SEPTTR); assay type: in vivo, Mycosphaerella graminicola on wheat plants (variety Yuma); conditions: Zymoseptoria tritici, 24 h, standard laboratory isolate; high volume; 50 ppm; 1 Day Protectant; wheat (Yuma); read-out: Disease Control, SI SEPTTR Type A Assay (50 ppm) 1 DP
Method in brief: (§1)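 Wheat seedlings (Yuma, first leaf emerged) sprayed with acetone/Triton X-100 solutions (Type A) or 10% EC diluted in 0.1% Trycol at 200 L/ha (Type B), inoculated before or after spraying. Inoculated plants held 3 days at 20 °C, 100% RH, then greenhouse; % disease control from severity versus untreated plants.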

| Structure (SMILES) | pest or weed control at 50 ppm [%] |
| --- | --- |
| COc1ccc(-c2ccc(C(O)(c3cncnc3)C(C)(C)C)nc2)cc1 (centres unmarked) [Compound 95] | 80 to 100 |
| OC(Cc1cncnc1)(c1ccc(-c2ccc(Cl)cc2)cn1)C1CC1 (centres unmarked) [Compound 39] | 80 to 100 |
| CC(C)(C)C(O)(c1cncnc1)c1ccc(-c2cccc(OC(F)(F)F)c2)cn1 (centres unmarked) [Compound 103] | 80 to 100 |
| COc1ncncc1C(O)(c1ccc(-c2ccc(C3(C#N)CC3)cc2)cn1)C(C)(C)C (centres unmarked) [Compound 169] | 80 to 100 |
| CC(C)(C)C(O)(c1cncnc1)c1ccc(-c2ccc(C#N)cc2)cn1 (centres unmarked) [Compound 88] | 80 to 100 |
| CC(C)(C)C(O)(Cc1cncnc1)c1ccc(-c2ccc(Cl)cc2)cn1 (centres unmarked) [Compound 51] | 80 to 100 |
| CC(C)(C)C(O)(c1cncnc1)c1ccc(-c2ccc(OC(F)F)cc2)cn1 (centres unmarked) [Compound 59] | 80 to 100 |
| CC(C)(C)C(O)(c1cncnc1)c1ccc(-c2ccc(Cl)cc2)cn1 (centres unmarked) [Compound 65] | 80 to 100 |
| Cc1cc(OC(F)(F)F)ccc1-c1ccc(C(O)(c2cncnc2)C(C)(C)C)nc1 (centres unmarked) [Compound 117] | 80 to 100 |

same assay, conditions: Zymoseptoria tritici, 72 h, standard laboratory isolate; high volume; 50 ppm; 3 Day Curative; wheat (Yuma); read-out: Disease Control, SI SEPTTR Type A Assay (50 ppm) 3 DC

| Structure (SMILES) | pest or weed control at 50 ppm [%] |
| --- | --- |
| OC(Cc1cncnc1)(c1ccc(-c2ccc(Cl)cc2)cn1)C1CC1 (centres unmarked) [Compound 39] | 80 to 100 |
| CC(C)(C)C(O)(Cc1cncnc1)c1ccc(-c2ccc(Cl)cc2)cn1 (centres unmarked) [Compound 51] | 80 to 100 |
| CC(C)(C)C(O)(c1cncnc1)c1ccc(-c2ccc(OC(F)F)cc2)cn1 (centres unmarked) [Compound 59] | 80 to 100 |

tested on: Mycosphaerella graminicola; Anamorph: Septoria tritici; Bayer Code SEPTTR (standard laboratory isolate, SI SEPTTR); test: Type B (low volume, EC formulation, track sprayer 200 L/ha) assay, leaf blotch of wheat, standard laboratory SEPTTR isolate (SI SEPTTR); assay type: in vivo, Mycosphaerella graminicola on wheat plants (variety Yuma); conditions: Zymoseptoria tritici, 72 h; standard laboratory isolate; low volume EC; 100 g/ha; 3 Day Curative; wheat (Yuma); read-out: Disease Control, SI SEPTTR Type B Assay (100 g/ha) 3 DC
Method: Example A: Evaluation of Fungicidal Activity: Leaf Blotch of Wheat (Mycosphaerella graminicola; Anamorph: Septoria tritici; Bayer Code SEPTTR)
For Type A assays, technical grades of the experimental fungicides in Table 4 below were dissolved in acetone, and then mixed with nine volumes of water containing 110 ppm Triton X-100. The fungicide solutions were applied onto wheat seedlings using an automated booth sprayer. For Type B assays, emulsifiable concentrate (EC) formulations of technical grades of the experimental fungicides in Table 4 below were prepared at 10% (w/v), and then mixed with 150 volumes of 0.1% Trycol 5941. These solutions were applied onto wheat seedlings using an automated track sprayer at 200 L/ha. All sprayed plants were allowed to air dry prior to further handling.
Wheat plants (variety Yuma) were grown from seed in a greenhouse in 50% mineral soil/50% soil-less Metro mix until the first leaf was fully emerged, with 7-10 seedlings per pot. Prior to or after application of experimental fungicides, plants were inoculated either with spores of a standard laboratory SEPTTR isolate (SI SEPTTR) or with spores from a SEPTTR field isolate collected from Wellsbourne, England in 2012 (FI SEPTTR). After inoculation the plants were kept for 3 days at 20° C. in 100% relative humidity (one day in a dark dew chamber followed by two days in a lighted dew chamber). Plants were then transferred to a 20° C. greenhouse for disease development. When disease symptoms were fully expressed on untreated plants, infection levels on treated plants were assessed on a scale of 0 to 100 percent disease severity. Percent disease control was calculated using the ratio of disease severity on treated plants relative to untreated plants.

| Structure (SMILES) | pest or weed control at 100 g/ha [%] |
| --- | --- |
| COc1ccc(-c2ccc(C(O)(c3cncnc3)C(C)(C)C)nc2)cc1 (centres unmarked) [Compound 95] | 80 to 100 |
| OC(Cc1cncnc1)(c1ccc(-c2ccc(Cl)cc2)cn1)C1CC1 (centres unmarked) [Compound 39] | 80 to 100 |
| CC(C)(C)C(O)(c1cncnc1)c1ccc(-c2cccc(OC(F)(F)F)c2)cn1 (centres unmarked) [Compound 103] | 60 to 79 |
| COc1ncncc1C(O)(c1ccc(-c2ccc(C3(C#N)CC3)cc2)cn1)C(C)(C)C (centres unmarked) [Compound 169] | 80 to 100 |
| CC(C)(C)C(O)(c1cncnc1)c1ccc(-c2ccc(C#N)cc2)cn1 (centres unmarked) [Compound 88] | 80 to 100 |
| CC(C)(C)C(O)(Cc1cncnc1)c1ccc(-c2ccc(Cl)cc2)cn1 (centres unmarked) [Compound 51] | 40 to 59 |
| CC(C)(C)C(O)(c1cncnc1)c1ccc(-c2ccc(OC(F)F)cc2)cn1 (centres unmarked) [Compound 59] | 80 to 100 |
| CC(C)(C)C(O)(c1cncnc1)c1ccc(-c2ccc(Cl)cc2)cn1 (centres unmarked) [Compound 65] | 80 to 100 |
| Cc1cc(OC(F)(F)F)ccc1-c1ccc(C(O)(c2cncnc2)C(C)(C)C)nc1 (centres unmarked) [Compound 117] | 80 to 100 |
| Cc1ccncc1C(O)(c1ccc(-c2ccc(OC(F)(F)F)cc2)cn1)C(C)(C)C (centres unmarked) [Compound 149] | 80 to 100 |
| Cc1ccc(C(O)(c2ccc(-c3ccc(OC(F)(F)F)cc3)cn2)C(C)(C)C)cn1 (centres unmarked) [Compound 148] | 60 to 79 |

same assay, conditions: Zymoseptoria tritici, 72 h; standard laboratory isolate; low volume EC; 100 g/ha; 3 Day Protectant; wheat (Yuma); read-out: Disease Control, SI SEPTTR Type B Assay (100 g/ha) 3 DP

| Structure (SMILES) | pest or weed control at 100 g/ha [%] |
| --- | --- |
| COc1ccc(-c2ccc(C(O)(c3cncnc3)C(C)(C)C)nc2)cc1 (centres unmarked) [Compound 95] | 80 to 100 |
| OC(Cc1cncnc1)(c1ccc(-c2ccc(Cl)cc2)cn1)C1CC1 (centres unmarked) [Compound 39] | 80 to 100 |
| CC(C)(C)C(O)(c1cncnc1)c1ccc(-c2cccc(OC(F)(F)F)c2)cn1 (centres unmarked) [Compound 103] | 80 to 100 |
| COc1ncncc1C(O)(c1ccc(-c2ccc(C3(C#N)CC3)cc2)cn1)C(C)(C)C (centres unmarked) [Compound 169] | 60 to 79 |
| CC(C)(C)C(O)(c1cncnc1)c1ccc(-c2ccc(C#N)cc2)cn1 (centres unmarked) [Compound 88] | 80 to 100 |
| CC(C)(C)C(O)(Cc1cncnc1)c1ccc(-c2ccc(Cl)cc2)cn1 (centres unmarked) [Compound 51] | 60 to 79 |
| CC(C)(C)C(O)(c1cncnc1)c1ccc(-c2ccc(OC(F)F)cc2)cn1 (centres unmarked) [Compound 59] | 80 to 100 |
| CC(C)(C)C(O)(c1cncnc1)c1ccc(-c2ccc(Cl)cc2)cn1 (centres unmarked) [Compound 65] | 80 to 100 |
| Cc1cc(OC(F)(F)F)ccc1-c1ccc(C(O)(c2cncnc2)C(C)(C)C)nc1 (centres unmarked) [Compound 117] | 80 to 100 |
| Cc1ccncc1C(O)(c1ccc(-c2ccc(OC(F)(F)F)cc2)cn1)C(C)(C)C (centres unmarked) [Compound 149] | 60 to 79 |
| Cc1ccc(C(O)(c2ccc(-c3ccc(OC(F)(F)F)cc3)cn2)C(C)(C)C)cn1 (centres unmarked) [Compound 148] | < 40 |

tested on: not listed separately; test: Type B (low volume, EC formulation, track sprayer 200 L/ha) assay, leaf blotch of wheat, SEPTTR field isolate (FI SEPTTR); assay type: in vivo, Mycosphaerella graminicola on wheat plants (variety Yuma); conditions: Zymoseptoria tritici, 72 h, field isolate; low volume EC; 100 g/ha; 3 Day Curative; wheat (Yuma); read-out: Disease Control, FI SEPTTR Type B Assay (100 g/ha) 3 DC
Method in brief: as §1

| Structure (SMILES) | pest or weed control at 100 g/ha [%] |
| --- | --- |
| COc1ccc(-c2ccc(C(O)(c3cncnc3)C(C)(C)C)nc2)cc1 (centres unmarked) [Compound 95] | 80 to 100 |
| OC(Cc1cncnc1)(c1ccc(-c2ccc(Cl)cc2)cn1)C1CC1 (centres unmarked) [Compound 39] | 60 to 79 |
| CC(C)(C)C(O)(c1cncnc1)c1ccc(-c2cccc(OC(F)(F)F)c2)cn1 (centres unmarked) [Compound 103] | < 40 |
| COc1ncncc1C(O)(c1ccc(-c2ccc(C3(C#N)CC3)cc2)cn1)C(C)(C)C (centres unmarked) [Compound 169] | 80 to 100 |
| CC(C)(C)C(O)(c1cncnc1)c1ccc(-c2ccc(C#N)cc2)cn1 (centres unmarked) [Compound 88] | 80 to 100 |
| CC(C)(C)C(O)(Cc1cncnc1)c1ccc(-c2ccc(Cl)cc2)cn1 (centres unmarked) [Compound 51] | 60 to 79 |
| CC(C)(C)C(O)(c1cncnc1)c1ccc(-c2ccc(OC(F)F)cc2)cn1 (centres unmarked) [Compound 59] | 80 to 100 |
| CC(C)(C)C(O)(c1cncnc1)c1ccc(-c2ccc(Cl)cc2)cn1 (centres unmarked) [Compound 65] | 60 to 79 |
| Cc1cc(OC(F)(F)F)ccc1-c1ccc(C(O)(c2cncnc2)C(C)(C)C)nc1 (centres unmarked) [Compound 117] | 80 to 100 |
| Cc1ccncc1C(O)(c1ccc(-c2ccc(OC(F)(F)F)cc2)cn1)C(C)(C)C (centres unmarked) [Compound 149] | 80 to 100 |
| Cc1ccc(C(O)(c2ccc(-c3ccc(OC(F)(F)F)cc3)cn2)C(C)(C)C)cn1 (centres unmarked) [Compound 148] | 60 to 79 |

same assay, conditions: Zymoseptoria tritici, 72 h, field isolate; low volume EC; 100 g/ha; 3 Day Protectant; wheat (Yuma); read-out: Disease Control, FI SEPTTR Type B Assay (100 g/ha) 3 DP

| Structure (SMILES) | pest or weed control at 100 g/ha [%] |
| --- | --- |
| COc1ccc(-c2ccc(C(O)(c3cncnc3)C(C)(C)C)nc2)cc1 (centres unmarked) [Compound 95] | 80 to 100 |
| OC(Cc1cncnc1)(c1ccc(-c2ccc(Cl)cc2)cn1)C1CC1 (centres unmarked) [Compound 39] | 40 to 59 |
| CC(C)(C)C(O)(c1cncnc1)c1ccc(-c2cccc(OC(F)(F)F)c2)cn1 (centres unmarked) [Compound 103] | 80 to 100 |
| COc1ncncc1C(O)(c1ccc(-c2ccc(C3(C#N)CC3)cc2)cn1)C(C)(C)C (centres unmarked) [Compound 169] | 80 to 100 |
| CC(C)(C)C(O)(c1cncnc1)c1ccc(-c2ccc(C#N)cc2)cn1 (centres unmarked) [Compound 88] | 80 to 100 |
| CC(C)(C)C(O)(Cc1cncnc1)c1ccc(-c2ccc(Cl)cc2)cn1 (centres unmarked) [Compound 51] | 60 to 79 |
| CC(C)(C)C(O)(c1cncnc1)c1ccc(-c2ccc(OC(F)F)cc2)cn1 (centres unmarked) [Compound 59] | 80 to 100 |
| CC(C)(C)C(O)(c1cncnc1)c1ccc(-c2ccc(Cl)cc2)cn1 (centres unmarked) [Compound 65] | 60 to 79 |
| Cc1cc(OC(F)(F)F)ccc1-c1ccc(C(O)(c2cncnc2)C(C)(C)C)nc1 (centres unmarked) [Compound 117] | 80 to 100 |
| Cc1ccncc1C(O)(c1ccc(-c2ccc(OC(F)(F)F)cc2)cn1)C(C)(C)C (centres unmarked) [Compound 149] | 60 to 79 |
| Cc1ccc(C(O)(c2ccc(-c3ccc(OC(F)(F)F)cc3)cn2)C(C)(C)C)cn1 (centres unmarked) [Compound 148] | < 40 |
